Row | melting point | SMILES
1 | 123 to 125 °C | CCCCS(=O)(=O)NC(=O)C[C@H]1O[C@H](c2cccc(OC)c2OC)c2cc(Cl)ccc2N(CC(C)(C)CO)C1=O [Example 4, (3R,5S)-N-butanesulfonyl-7-chloro-5-(2,3-dimethoxyphenyl)-1-(3-hydroxy-2,2-dimethylpropyl)-2-oxo-1,2,3,5-tetrahydro-4,1-benzoxazepine-3-acetamide]
2 | 133 to 135 °C | COc1cccc([C@H]2O[C@H](CC(=O)NS(=O)(=O)CCCO)C(=O)N(CC(C)(C)CO)c3ccc(Cl)cc32)c1OC [Example 6, (3R,5S)-N-(3-hydroxypropyl)sulfonyl-7-chloro-5-(2,3-dimethoxyphenyl)-1-(3-hydroxy-2,2-dimethylpropyl)-2-oxo-1,2,3,5-tetrahydro-4,1-benzoxazepine-3-acetamide]
3 | 142 to 143 °C | COc1cccc([C@H]2O[C@H](CC(=O)N[C@H](CCSC)C(=O)O)C(=O)N(CC(C)(C)CO)c3ccc(Cl)cc32)c1OC [Example 16, N-[[(3R,5S)-7-chloro-5-(2,3-dimethoxyphenyl)-1-(3-hydroxy-2,2-dimethylpropyl)-2-oxo-1,2,3,5-tetrahydro-4,1-benzoxazepin-3-yl]acetyl]-D-methionine]
4 | 155 to 157 °C | COc1cccc([C@H]2O[C@H](CC(=O)NCCc3oc(C(=O)O)cc3C(=O)O)C(=O)N(CC(C)(C)CO)c3ccc(Cl)cc32)c1OC [Example 28, 5-[2-[[[(3R,5S)-7-chloro-5-(2,3-dimethoxyphenyl)-1(2,2-dimethyl-3-hydroxypropyl)-2-oxo-1,2,3,5-tetrahydro-4,1-benzoxazepin-3-yl]acetyl]amino]ethyl]furan-2,4-dicarboxylic acid]
5 | 128 to 131 °C | COc1cccc([C@H]2O[C@H](CC(=O)NCc3ccc(C(=O)O)o3)C(=O)N(CC(C)(C)CO)c3ccc(Cl)cc32)c1OC [Example 29, 5-[[[[(3R,5S)-7-chloro-5-(2,3-dimethoxyphenyl)-1-(2,2-dimethyl-3-hydroxypropyl)-2-oxo-1,2,3,5-tetrahydro-4,1-benzoxazepin-3-yl]acetyl]amino]methyl]furan-2-carboxylic acid]
6 | 142 to 144 °C | COc1cccc([C@H]2O[C@H](CC(=O)Nc3ccc(CC(=O)O)cc3)C(=O)N(CC(C)(C)CO)c3ccc(Cl)cc32)c1OC [Example 31, 4-[[(3R,5S)-7-chloro-5-(2,3-dimethoxyphenyl)-1-(3-hydroxy-2,2-dimethylpropyl)-2-oxo-1,2,3,5-tetrahydro-4,1-benzoxazepin-3-yl]acetyl]aminophenylacetic acid]
7 | 165 to 168 °C | COc1cccc([C@H]2O[C@H](CC(=O)Nc3cccc(C(=O)O)c3C)C(=O)N(CC(C)(C)CO)c3ccc(Cl)cc32)c1OC [Example 43, 3-[[[(3R,5S)-7-chloro-5-(2,3-dimethoxyphenyl)-1-(3-hydoroxy-2-dimethylpropyl)-2-oxo-1,2,3,5-tetrahydro-4,1-benzoxazepin-3-yl]acetyl]amino]-2-methylbenzoic acid]
8 | 275 to 276 °C | COc1cccc([C@H]2O[C@H](CC(=O)Nc3ccc(C(=O)O)cc3C)C(=O)N(CC(C)(C)CO)c3ccc(Cl)cc32)c1OC [Example 48, 4-[[(3R,5S)-7-chloro-5-(2,3-dimethoxyphenyl)-1-(3-hydroxy-2,2-dimethylpropyl)-2-oxo-1,2,3,5-tetrahydro-4,1-benzoxazepin-3-yl]acetyl]amino-3-methylbenzoic acid]
9 | 151 to 153 °C | CCOc1ccc(CCC(=O)O)cc1NC(=O)C[C@H]1O[C@H](c2cccc(OC)c2OC)c2cc(Cl)ccc2N(CC(C)(C)CO)C1=O [Example 49, 3-[3-[[[(3R,5S)-7-chloro-5-(2,3-dimethoxyphenyl)-1-(3-hydroxy-2,2-dimethylpropyl)-2-oxo-1,2,3,5-tetrahydro-4,1-benzoxazepin-3-yl]acetyl]amino]-4-ethoxyphenyl]propionic Acid]
10 | 133 to 136 °C | COc1cccc([C@H]2O[C@H](CC(=O)Nc3cc(CCC(=O)O)ccc3OC(C)C)C(=O)N(CC(C)(C)CO)c3ccc(Cl)cc32)c1OC [Example 51, 3-[3-[[[(3R,5S)-7-chloro-5-(2,3-dimethoxyphenyl)-1-(3-hydroxy-2,2-dimethylpropyl)-2-oxo-1,2,3,5-tetrahydro-4,1-benzoxazepin-3-yl]acetyl]amino]-4-isopropoxyphenyl]propionic Acid]
11 | 145 to 148 °C | COc1cc(CCC(=O)O)cc(NC(=O)C[C@H]2O[C@H](c3cccc(OC)c3OC)c3cc(Cl)ccc3N(CC(C)(C)CO)C2=O)c1OC [Example 66, 3-[5-[[[(3R,5S)-7-chloro-5-(2,3-dimethoxyphenyl)-1-(3-hydroxy-2,2-dimethylpropyl)-2-oxo-1,2,3,5-tetrahydro-4,1-benzoxazepin-3-yl]acetyl]amino]-3,4-dimethoxyphenyl]propionic Acid]
12 | 194 to 195 °C | COc1cccc([C@H]2O[C@H](CC(=O)Nc3ccc(CCCC(=O)O)cc3)C(=O)N(CC(C)(C)CO)c3ccc(Cl)cc32)c1OC [Example 68, 4-[4-[[[(3R,5S)-7-chloro-5-(2,3-dimethoxyphenyl)-1-(3-hydroxy-2,2-dimethylpropyl)-2-oxo-1,2,3,5-tetrahydro-4,1-benzoxazepin-3-yl]acetyl]amino]phenyl]butanoic acid]
13 | 128 to 130 °C | COc1cccc([C@H]2O[C@H](CC(=O)NCCCC(=O)O)C(=O)N(CC(C)(C)C)c3ccc(Cl)cc32)c1OC [Example 70, 4-[[(3R,5S)-7-chloro-5-(2,3-dimethoxyphenyl)-1-neopentyl-2-oxo-1,2,3,5-tetrahydro-4,1-benzoxazepin-3-yl]acetyl]aminobutanoic acid]
14 | 143 to 144 °C | COc1cccc([C@H]2O[C@H](CC(=O)NCc3ccc(C(=O)O)cc3)C(=O)N(CC(C)(C)CO)c3ccc(Cl)cc32)c1OC [Example 75, 4-[[(3R,5S)-7-Chloro-5-(2,3-dimethoxyphenyl)-1-(3-hydroxy-2,2-dimethylpropyl)-2-oxo-1,2,3,5-tetrahydro-4,1-benzoxazepin-3-yl]acetyl]aminomethylbenzoic acid]
15 | 209 to 211 °C | COc1cccc([C@H]2O[C@H](CC(=O)NCCc3ccc(OC(C)(C)C(=O)O)cc3)C(=O)N(CC(C)(C)CO)c3ccc(Cl)cc32)c1OC [Example 77, α-[4-[2-[[(3R,5S)-7-Chloro-5-(2,3-dimethoxyphenyl)-1-(3-hydroxy-2,2-dimethylpropyl)-2-oxo-1,2,3,5-tetrahydro-4,1-benzoxazepin-3-yl]acetyl]aminoethyl]phenyloxy]isobutanoic acid]
16 | 171 to 172 °C | COc1cccc([C@H]2O[C@H](CC(=O)Nc3ccc4oc(C(=O)O)cc4c3)C(=O)N(CC(C)(C)CO)c3ccc(Cl)cc32)c1OC [Example 81, 5-[[[(3R,5S)-7-Chloro-5-(2,3-dimethoxyphenyl)-1-(3-hydroxy-2,2-dimethylpropyl)-2-oxo-1,2,3,5-tetrahydro-4,1-benzoxazepin-3-yl]acetyl]amino]benzofuran-2-carboxylic acid]
17 | 155 to 158 °C | COc1cccc([C@H]2O[C@H](CC(=O)Nc3ccc(C(=O)O)o3)C(=O)N(CC(C)(C)CO)c3ccc(Cl)cc32)c1OC [Example 94, 5-[[(3R,5S)-7-Chloro-5-(2,3-dimethoxyphenyl)-1-(3-hydroxy-2,2-dimethylpropyl)-2-oxo-1,2,3,5-tetrahydro-4,1-benzoxazepin-3-yl]acetyl]amino-2-furancarboxylic acid]
18 | 125 to 128 °C | COc1cccc([C@H]2O[C@H](CC(=O)NCCCOc3ccc(CC(=O)O)cc3)C(=O)N(CC(C)(C)CO)c3ccc(Cl)cc32)c1OC [Example 96, 4-[3-[[(3R,5S)-7-Chloro-5-(2,3-dimethoxyphenyl)-1-(3-hydroxy-2,2-dimethylpropyl)-2-oxo-1,2,3,5-tetrahydro-4,1-benzoxazepin-3-yl]acetyl]aminopropyloxy]phenylacetic acid]
19 | 138 to 139 °C | COc1cccc([C@H]2O[C@H](CC(=O)NCCCOc3ccc(C(=O)O)cc3)C(=O)N(CC(C)(C)CO)c3ccc(Cl)cc32)c1OC [Example 98]
20 | 132 to 134 °C | COc1cccc([C@H]2O[C@H](CC(=O)NCCCOc3cccc(C(=O)O)c3)C(=O)N(CC(C)(C)CO)c3ccc(Cl)cc32)c1OC [Example 100, 3-[3-[[(3R,5S)-7-Chloro-5-(2,3-dimethoxyphenyl)-1-(3-hydroxy-2,2-dimethylpropyl)-2-oxo-1,2,3,5-tetrahydro-4,1-benzoxazepin-3-yl]acetyl]aminopropyloxy]benzoic acid]

Row | SMILES | melting point
21 | COc1cccc([C@H]2O[C@H](CC(=O)Nc3cccc(C(=O)O)c3C)C(=O)N(CC(C)(C)COC(C)=O)c3ccc(Cl)cc32)c1OC [Example 44, 3-[[[(3R,5S)-1-(3-acetoxy-2,2-dimethylpropyl)-7-chloro-5-(2,3-dimethoxyphenyl)-2-oxo-1,2,3,5-tetrahydro-4,1-benzoxazepin-3-yl]acetyl]amino]-2-metylbenzoic acid] | 139 to 142 °C
22 | CCOc1ccc(CCC(=O)O)cc1NC(=O)C[C@H]1O[C@H](c2cccc(OC)c2OC)c2cc(Cl)ccc2N(CC(C)(C)COC(C)=O)C1=O [Example 50, 3-[3-[[[(3R,5S)-1-(3-acetoxy-2,2-dimethylpropyl)-7-chloro-5-(2,3-dimethoxyphenyl)-2-oxo-1,2,3,5-tetrahydro-4,1-benzoxazepin-3-yl]acetyl]amino]-4-ethoxyphenyl]propionic Acid] | 175 to 176 °C
23 | COc1cccc([C@H]2O[C@H](CC(=O)Nc3cc(CCC(=O)O)ccc3OC(C)C)C(=O)N(CC(C)(C)COC(C)=O)c3ccc(Cl)cc32)c1OC [Example 52, 3-[3-[[[(3R,5S)-1-(3-acetoxy-2,2-dimethylpropyl)-7-chloro-5-(2,3-dimethoxyphenyl)-2-oxo-1,2,3,5-tetrahydro-4,1-benzoxazepin-3-yl]acetyl]amino]-4-isopropoxyphenyl]propionic Acid] | 101 to 103 °C
24 | COc1cccc([C@H]2O[C@H](CC(=O)NCCCOc3ccc(CC(=O)O)cc3)C(=O)N(CC(C)(C)COC(C)=O)c3ccc(Cl)cc32)c1OC [Example 97, 4-[3-[[(3R,5S)-1-(3-Acetoxy-2,2-dimethylpropyl)-7-chloro-5-(2,3-dimethoxyphenyl)-2-oxo-1,2,3,5-tetrahydro-4,1-benzoxazepin-3-yl]acetyl]aminopropyloxy]phenylacetic acid] | 163 to 164 °C

Reference: patent US20030078251A1, “Benzoxazepinones and their use as squalene synthase inhibitors” (priority 2000, published 2003)
